In ChEMBL document CHEMBL3046737, “Mode of Action of Cyanohydrins in Insects” (J Pestic Sci, 2005):
Values after ≈ are worked out from the molar mass of the structure shown.

Legend:
Rhyzopertha dominica [1] = assay: Insecticidal activity against Rhyzopertha dominica after 24 hr; format: functional
Musca domestica [2] = assay: Insecticidal activity against Musca domestica (house fly) after 24 hr; format: functional
Musca domestica [3] = assay: Drug level in Musca domestica (house fly) assessed as cyanide ion level per gram of insect at L99 treated topically after 24 hr by spectrophotometric method; format: ADME, organism-based; details: in vivo, topical_or_ocular
Rhyzopertha dominica [4] = assay: Drug level in Rhyzopertha dominica assessed as cyanide ion level per gram of insect at L99 treated as fumigation after 24 hr by spectrophotometric method; format: ADME, organism-based; details: in vivo, other
Musca domestica [5] = assay: Drug level in Musca domestica (house fly) at 1000 ug after 24 hr by spectrophotometric method; format: ADME, organism-based; details: in vivo
Musca domestica [6] = assay: Drug level in Musca domestica (house fly) assessed as cyanide ion level per gram of insect at L99 treated as fumigation after 24 hr by spectrophotometric method; format: ADME, organism-based; details: in vivo, inhaled_or_intranasal

| Compound | LC50 (Rhyzopertha dominica [1]) [µg/mL] | LC50 (Musca domestica [2]) [µg/mL] | Drug uptake (Musca domestica [3]) [ppm] | Drug uptake (Rhyzopertha dominica [4]) [ppm] | Drug uptake (Musca domestica [5]) [%] | Drug uptake (Musca domestica [6]) [ppm] |
| --- | --- | --- | --- | --- | --- | --- |
| COP(=O)(OC)OC=C(Cl)Cl [DICHLORVOS] | 0.29 (≈ 1.31 µM) | 0.011 (≈ 0.0498 µM) |  |  |  |  |
| CCC(Cl)Cl [DICHLOROPROPANE] | 5.47 (≈ 48.4 µM) | 0.9 (≈ 7.97 µM) |  |  |  |  |
| CC(C)(O)C#N [DIMETHYLKETONE CYANOHYDRIN] | 0.4 (≈ 4.7 µM) | 0.07 (≈ 0.823 µM) | 56 | 43 | 53 | 48 |
| CCC(C)(O)C#N (centres undefined) [METHYLETHYL KETONE CYANOHYDRIN] | 0.41 (≈ 4.14 µM) | 0.09 (≈ 0.908 µM) |  |  |  |  |
| C=CC(O)C#N (centres undefined) | 0.37 (≈ 4.45 µM) | 0.056 (≈ 0.674 µM) | 52 | 35 | 53 | 38 |
| C=CC(C#N)OC(C)=O (centres undefined) [1-CYANOALLYL ACETATE] | 0.37 | 0.26 | 54 | 33 | 53 | 39 |
